Our source for the IC50 values is ChEMBL document CHEMBL1133170, “Binding mode of the 4-anilinoquinazoline class of protein kinase inhibitor: X-ray crystallographic studies of 4-anilinoquinazolines bound to cyclin-dependent kinase 2 and p38 kinase” (J Med Chem, 2000).

For assay [1], the target named is Cyclin-dependent kinase 2 (Homo sapiens, UniProt P24941). In words: Inhibition of Cyclin-dependent kinase 2.
For a further assay, the target named is MAP kinase p38 (Homo sapiens, UniProt O15264+Q15759+Q16539+P53778). In words: Inhibition of Mitogen-activated protein kinase p38. The assay is classed as protein assay.

One may read the IC50 as the midpoint of a concentration-inhibition curve. The low end stands for greater potency, the high end for weaker potency. Consider `COc1cc2ncnc(Nc3cccc(Br)c3)c2cc1OC`, for which the IC50 in assay [1] was 250 µM; against MAP kinase p38, 6.3 µM.
